Data published in publication PMC8533403, “Nostocyclopeptides as New Inhibitors of 20S Proteasome” (Biomolecules, 2021).
Where a SMILES comes first, the peptide text is derived from it. [ ]: non-standard residue; d: D form. The star is where a group is joined. ξ: configuration not given here. ξPro(4ξ-Me) = CC1CNC(C(=O)O)C1; Cbz = O=C(OCc1ccccc1)*

Tests used:
[1] = system: Saccharomyces cerevisiae 20S proteasome CT-L activity; details: cited from earlier work
Protocol: (§1) Nostodione A from Scytonema hofmannii, which inhibits CT-L activity (IC50 50 μM), contains indole moiety fused with diketone system.

proteasome CT-L activity [2] = details: cited from earlier work
Source text: (§2) The 26S proteasome is a large (2.4 MDa), multifunctional and ATP-dependent enzymatic complex with chymotrypsin-like (CT-L), trypsin-like (T-L), and caspase-like (C-L) activities. In eukaryotic organisms, it recognizes and degrades proteins with covalently attached ubiquitin (8.5 kDa protein). The 26S proteasome is composed of a 20S barrel-shaped core particle (700 kDa) responsible for proteolytic activity and one or two 19S (890 kDa) regulatory subunits with ubiquitin-binding sites. The 20S proteasome also occurs as a free complex that degrades protein ...

20S complex (proteasome) = details: read-out: IC50, catalytic activity of proteasome; cited from earlier work
Protocol: as §1

[3] = system: 20S proteasome T-L activity; details: cited from earlier work
Source text: as §2

[4] = system: 20S proteasome CT-L activity; details: cited from earlier work
Source text: as §2

[5] = system: 20S proteasome C-L activity; details: cited from earlier work
Source text: as §2

proteasome CT-L activity [6] = details: cited from earlier work; remark: listed apart in the source
Protocol: as §1

[7] = target: T1, human 20S proteasome (h20S), trypsin-like (T-L) activity (Homo sapiens, UniProt Q99436); experiment: Human 20S inhibition assay, trypsin-like activity (Boc-LRR-AMC); format: biochemical; details: tested 5 to 50 µM; Boc-LRR-AMC 100 µM; pH 8.0, 37 °C; no replications; Figure 2B
T1 construct: Human 20S proteasome (h20S) isolated from erythrocytes was used; from tissue; host or cells: human erythrocytes
Protocol: (§3) The 20S proteasome inhibition assay was performed following the procedure of Czerwonka et al.. Human 20S proteasome (h20S) isolated from erythrocytes was used. Latent h20S was activated with 0.01% SDS (sodium dodecyl sulfate). The final concentration of the proteasome was 1 µg mL^−1 (1.4 nM). The fluorogenic substrates, Suc-LLVY-AMC, Boc-LRR-AMC, and Z-LLE-AMC, were used as probes in the chymotrypsin-like, trypsin, and caspase-like activity assays, respectively, at a final concentration of 100 µM. Stock solutions of Ncps (10 mM) were prepared in dimethyl sulfoxide (DMSO) and were tested in the concentration range of 5 to 50 μM. The content of DMSO never exceeded 3% of the final reaction volume. The assays were performed in a 96-well plate in 50 mM TrisHCl, pH 8.0, at 37 °C. The percentage of the substrate hydrolysis was measured by the amount of the released AMC (aminomethyl coumarin) using Tecan Infinite M200 Pro (λ = 380–460 nm) spectrofluorimeter (Tecan Trading AG, Männedorf, Switzerland). The fluorescence measurements were performed at 2-min intervals for 60 min. The activity of h20S in the presence of isolated Ncps was calculated in relation to the control (DMSO). The known proteasome inhibitor PR11 [28] was used to ensure the correctness of the assay. The peptide at the final concentration of 0.2 µM decreases the relative CT-L activity of the h20S to 6% of the control.

[8] = target: T2, human 20S proteasome (h20S), chymotrypsin-like (CT-L) activity (Homo sapiens, UniProt P28074); experiment: Human 20S inhibition assay, chymotrypsin-like activity (Suc-LLVY-AMC); format: biochemical; details: Suc-LLVY-AMC 100 µM, pH 8.0, 37 °C
T2 construct: Human 20S proteasome (h20S) isolated from erythrocytes was used; from tissue; host or cells: human erythrocytes
Protocol: as §3

[9] = target: T3, human 20S proteasome (h20S), caspase-like (C-L) activity (Homo sapiens, UniProt P28072); experiment: Human 20S inhibition assay, caspase-like activity (Z-LLE-AMC); format: biochemical; details: tested 5 to 50 µM; Z-LLE-AMC 100 µM; pH 8.0, 37 °C; no replications; Figure 2C
T3 construct: Human 20S proteasome (h20S) isolated from erythrocytes was used; from tissue; host or cells: human erythrocytes
Protocol: as §3

proteasome = system: proteasome; parameters: method as in PMID 18801655; details: read-out: IC50, proteasome inhibition; cited from earlier work
Protocol: In the current work, to unequivocally state which of the cyanobacterial metabolites are responsible for this activity, the six isolated Ncps were assayed.

CCCCCC(=O)N[C@H](C(=O)N[C@@H](CC[S+](C)[O-])C(=O)N[C@@H](CC(C)C)C(=O)[C@@]1(C)CO1)C(C)C (some centres unmarked) [carmaphycin A]
inhibition of CT-L activity of the Saccharomyces cerevisiae 20S proteasome [1]: low nanomolar concentrations

Tyropeptin A
effect on CT-L activity (proteasome CT-L activity [2]): inhibits mainly CT-L activity

scytonemide A
IC50 (20S complex (proteasome)): 96 nM

CCCCCCCCC[C@@H](O)CC(=O)N[C@@H](CC(N)=O)C(=O)N[C@@H](CCC(N)=O)C(=O)N[C@H](C=O)CC(C)C [fellutamide B]
IC50 [3]: 2000 nM
IC50 [4]: 9.4 nM
IC50 [5]: 1200 nM

O=C1C(=O)c2c([nH]c3ccccc23)/C1=C\c1ccc(O)cc1 [Nostodione A]
IC50 (proteasome CT-L activity [6]): 50000 nM

CC(=O)N[C@@H](CC(C)C)C(=O)N[C@@H](CC(C)C)C(=O)N[C@H](C=O)CCCNC(=N)N [Leupeptin]
effect on T-L activity of the 20S proteasome [3]: inhibits T-L activity

CC[C@H](C)[C@H](NC(=O)[C@@H](CCC(N)=O)NC(=O)CNC(=O)[C@@H](N)Cc1ccc(O)cc1)C(=O)N[C@@H](CO)C(=O)N1CCC[C@H]1C(=O)N[C@H](C=O)CC(C)C [Ncp-E2-L] (H-YG[dQ]ISPL-aldehyde; N-terminus assumed)
effect on T-L activity of the human 20S proteasome [7]: did not modify
effect on CT-L activity of the human 20S proteasome at 50 µM ([8]; applied at 50 µM, triplicate, Figure 2A): inhibited
effect on C-L activity of the human 20S proteasome [9]: did not modify

CCC(C)C(NC(=O)C(CCC(N)=O)NC(=O)CNC(=O)C(N)Cc1ccc(O)cc1)C(=O)NC(CO)C(=O)N1CC(C)CC1C(=O)NC(C=O)Cc1ccccc1 (stereo not drawn) [Ncp-A2-L, Tyr-Gly-Gln-Ile-Ser-MePro-Phe-H] (H-YGQIS[ξPro(4ξ-Me)]F-aldehyde; configuration not given here)
IC50 ([8]; h20S 1.4 nM, approximate (ca.)): ~50000 nM

CCCCCC(=O)N[C@H](C(=O)N[C@@H](CCS(C)(=O)=O)C(=O)N[C@@H](CC(C)C)C(=O)[C@@]1(C)CO1)C(C)C [carmaphycin B]
inhibition of CT-L activity of the Saccharomyces cerevisiae 20S proteasome [1]: low nanomolar concentrations

CC(C)C[C@@H](C=O)NC(=O)[C@H](CC(C)C)NC(=O)[C@H](CC(C)C)NC(=O)OCc1ccccc1 [MG-132] (Cbz-Leu-Leu-Leu-aldehyde)
IC50 (proteasome): 110 nM
